Data taken from patent US20090048288A1, “METHOD OF TREATING STRESS-MEDIATED DEPRESSION” (H. Lundbeck A/S, priority 2007, published 2009).
Entries after “also recorded” stand apart in the source; their conditions may differ.

System: Chronic mild stress model in rats
Test: Chronic mild stress model in rats, serum marker analysis
Settings: for Apo A1 (Apolipoprotein A1), median value: serum 24 hrs after last drug injection
Excerpt: The biochemical changes induced in the animals studied in the stress models lead to increases in inflammatory mediators/markers.
At the end of the present study, terminal serum samples were collected for marker analysis to evaluate the effects of stress with and without drug on the levels of about 60 blood markers.
Serum samples were withdrawn from the tail, without stunning, during the daytime (09:00-17:00) 24 hrs after the last drug injection. Blood was collected into BD vacutainers containing clot activator and gel for serum preparation, inverted 5 times and maintained on ice until centrifugation at 3000 rpm for 10 min at 4° C. Serum was decanted, placed on ice, and at the end of the day stored at −80° C.

## Oc1noc2c1CCNC2 [GBX, 4,5,6,7-tetrahydroisoxazolo[5,4-c]pyridine-3-ol]
1st study, 5 mg/kg, serum
  CRP (C Reactive Protein), median value: 1140.00 µg/mL
  Cystatin-C, median value: 1165.00 ng/mL
  FGF-9 (Fibroblast Growth Factor-9), median value: 0.59 ng/mL
  GCP-2 (Granulocyte Chemotactic Protein-2), median value: 0.19 ng/mL
  Growth Hormone, median value: 7.67 ng/mL
  IL-1alpha (Interleukin-1alpha), median value: 11.30 pg/mL
  IL-2 (Interleukin-2), median value: 31.30 pg/mL
  IL-4 (Interleukin-4), median value: 29.60 pg/mL
  IL-7 (Interleukin-7), median value: 0.16 ng/mL
  IL-10 (Interleukin-10), median value: 249.00 pg/mL
  IL-11 (Interleukin-11), median value: 128.00 pg/mL
  IL-18 (Interleukin-18), median value: 0.07 ng/mL
  IP-10 (Inducible Protein-10), median value: 138.00 pg/mL
  IgA (Immunoglobulin A), median value: 5.91 µg/mL
  Insulin, median value: 8.88 uIU/mL
  LIF (Leukemia Inhibitory Factor), median value: 53.90 pg/mL
  Leptin, median value: 2.59 ng/mL
  Lymphotactin, median value: 53.80 pg/mL
  M-CSF (Macrophage-Colony Stimulating Factor), median value: 865.00 ng/mL
  MCP-1 (Monocyte Chemoattractant Protein-1), median value: 1185.00 pg/mL
  MCP-3 (Monocyte Chemoattractant Protein-3), median value: 655.00 pg/mL
  MCP-5 (Monocyte Chemoattractant Protein-5), median value: 0.77 pg/mL
  MIP-1alpha (Macrophage Inflammatory Protein-1alpha), median value: 173.00 ng/mL
  MIP-1gamma (Macrophage Inflammatory Protein-1gamma), median value: 7.95 ng/mL
  MIP-2 (Macrophage Inflammatory Protein-2), median value: 0.08 pg/mL
  MPO (Myeloperoxidase), median value: 20.80 ng/mL
  NGAL (Lipocalin-2), median value: 0.17 ng/mL
  Osteopontin, median value: 396.00 ng/mL
  SAP (Serum Amyloid P), median value: 133.00 µg/mL
  SCF (Stem Cell Factor), median value: 14.85 pg/mL
  SGOT (Serum Glutamic-Oxaloacetic Transaminase), median value: 0.21 µg/mL
  TIMP-1 (Tissue Inhibitor of Metalloproteinase Type-1), median value: 0.16 ng/mL
  TPO (Thrombopoietin), median value: 147.00 ng/mL
  Tissue Factor, median value: 0.10 ng/mL
  VCAM-1 (Vascular Cell Adhesion Molecule-1), median value: 361.00 ng/mL
  VEGF (Vascular Endothelial Cell Growth Factor), median value: 81.00 pg/mL
1st study, 5 mg/kg
  Apo A1 (Apolipoprotein A1), median value: 8.20 µg/mL
2nd study, 10 mg/kg, serum
  Beta-2 Microglobulin, median value: 38.00 µg/mL
  CRP (C Reactive Protein), median value: 1030.00 µg/mL
  Clusterin, median value: 108.00 µg/mL
  Cystatin-C, median value: 696.00 ng/mL
  Eotaxin, median value: 1072.00 pg/mL
  FGF-9 (Fibroblast Growth Factor-9), median value: 1.70 ng/mL
  Factor VII, median value: 0.30 ng/mL
  GCP-2 (Granulocyte Chemotactic Protein-2), median value: 0.29 ng/mL
  GST-Mu, median value: 1190.00 ng/mL
  Growth Hormone, median value: 3.10 ng/mL
  IL-1beta (Interleukin-1beta), median value: 0.56 ng/mL
  IL-2 (Interleukin-2), median value: 22.00 pg/mL
  IL-5 (Interleukin-5), median value: 0.24 ng/mL
  IL-7 (Interleukin-7), median value: 0.06 ng/mL
  IL-10 (Interleukin-10), median value: 362.00 pg/mL
  IL-18 (Interleukin-18), median value: 0.43 ng/mL
  IP-10 (Inducible Protein-10), median value: 41.00 pg/mL
  IgA (Immunoglobulin A), median value: 4.30 µg/mL
  Insulin, median value: 14.50 uIU/mL
  LIF (Leukemia Inhibitory Factor), median value: 67.00 pg/mL
  Leptin, median value: 1.35 ng/mL
  Lymphotactin, median value: 63.00 pg/mL
  M-CSF (Macrophage-Colony Stimulating Factor), median value: 1400.00 ng/mL
  MCP-1 (Monocyte Chemoattractant Protein-1), median value: 1020.00 pg/mL
  MCP-3 (Monocyte Chemoattractant Protein-3), median value: 659.00 pg/mL
  MCP-5 (Monocyte Chemoattractant Protein-5), median value: 0.72 pg/mL
  MDC (Macrophage-Derived Chemokine), median value: 0.12 pg/mL
  MIP-1alpha (Macrophage Inflammatory Protein-1alpha), median value: 127.00 ng/mL
  MIP-1beta (Macrophage Inflammatory Protein-1beta), median value: 0.01 pg/mL
  MIP-1gamma (Macrophage Inflammatory Protein-1gamma), median value: 19.00 ng/mL
  MIP-2 (Macrophage Inflammatory Protein-2), median value: 0.22 pg/mL
  MIP-3beta (Macrophage Inflammatory Protein-3beta), median value: 29.70 ng/mL
  MPO (Myeloperoxidase), median value: 533.00 ng/mL
  Myoglobin, median value: 520.00 ng/mL
  NGAL (Lipocalin-2), median value: 0.15 ng/mL
  OSM (Oncostatin M), median value: 19.10 ng/mL
  Osteopontin, median value: 255.00 ng/mL
  RANTES (Regulation Upon Activation, Normal T-Cell Expressed and Secreted), median value: 10.60 pg/mL
  SAP (Serum Amyloid P), median value: 403.00 µg/mL
  SCF (Stem Cell Factor), median value: 11.30 pg/mL
  SGOT (Serum Glutamic-Oxaloacetic Transaminase), median value: 8.53 µg/mL
  TIMP-1 (Tissue Inhibitor of Metalloproteinase Type-1), median value: 0.24 ng/mL
  TNF-alpha (Tumor Necrosis Factor-alpha), median value: 4.45 ng/mL
  TPO (Thrombopoietin), median value: 119.00 ng/mL
  Tissue Factor, median value: 0.06 ng/mL
  VCAM-1 (Vascular Cell Adhesion Molecule-1), median value: 353.00 ng/mL
  VEGF (Vascular Endothelial Cell Growth Factor), median value: 78.00 pg/mL
2nd study, 10 mg/kg
  Apo A1 (Apolipoprotein A1), median value: 6.20 µg/mL
Rats exposed to chronic mild stress, compared with non-stressed controls, listed as gaboxadol
  reversal of chronic mild stress induced changes in serum inflammatory markers / cytokine levels: dose dependently was able to reverse most of the chronic mild stress induced changes in cytokine levels; also recorded: significantly reversed the stress-induced alterations in serum markers toward levels found in non-stressed controls; also recorded: dose dependently is able to reverse or partially reverse changes at most in inflammatory parameters induced by chronic mild stress
